Results on one compound are retold here after patent US20260191853A1, “METHOD OF TREATING DRUG-INDUCED BRADYARRHYTHMIA” (OSAKA UNIVERSITY, priority 2022, published 2026).

“Also recorded” adds a separate entry of the source.

For data set [1], the system named is Hartley guinea pigs. The data set can be described thus: Termination effect on fingolimod-induced bradyarrhythmia in isoflurane-anesthetized guinea pig model. The class given is in vivo. The text has this:
Hartley guinea pigs (7 to 10 weeks old, male, available from Japan SLC, Inc.) were subjected to anesthetic induction by inhalation of isoflurane (available from Pfizer Japan Inc.), and each animal was held on an operating table having a heater function. The trachea was incised, and a tracheal cannula (KN-375, available from Natsume Seisakusho Co., Ltd.) was inserted. The tracheal cannula was connected to a ventilator (SN-480-7, available from Shinano Seisakusho Co., Ltd.), and artificial respiration was controlled by supplying 100% oxygen at a volume of 10 mL and a ventilation rate of 60 times/minute. Isoflurane (available from Pfizer Japan Inc.) anesthesia (about 1 to 4%, carrier gas: 100% oxygen) was used for maintenance of anesthesia. A catheter (BD intramedic polyethylene tubing PE50, available from Becton, Dickinson and Company) charged with 50 units/mL heparin (available from AY PHARMACEUTICALS CO., LTD.) was inserted into each of the carotid artery and the jugular vein and placed in the blood vessel. Systemic blood pressure was measured with a high-sensitivity DC amplifier (AD-611J, available from NIHON KOHDEN CORPORATION) via the catheter placed in the carotid artery. Electrodes were attached to the body surface, and a body surface electrocardiogram was measured with a high-sensitivity amplifier (AB-611J, available from NIHON KOHDEN CORPORATION). Blood pressure and electrocardiogram data were acquired and analyzed with PowerLab/Labchart system (available from ADInstruments). After stabilization of each parameter, fingolimod hydrochloride (available from Nissan Chemical Corporation) was continuously administered intravenously at 0.1 mg/kg for 10 minutes via the catheter placed in the jugular vein, followed by observation of the presence or absence of atrioventricular block. After confirmation that atrioventricular block continued for 10 minutes from the onset thereof, a solvent or compound (I) dihydrochloride was continuously administered intravenously at 0.1 mg/kg for 30 minutes, and the effect of terminating atrioventricular block was observed during the intravenous administration. The solvent used was saline (available from Otsuka Pharmaceutical Factory, Inc.). Data were recorded and blood was collected 10, 20, and 30 minutes after initiation of administration of compound (I) dihydrochloride and at the time of termination of atrioventricular block. The observation was terminated 30 minutes after initiation of the administration, and the animal was euthanized by exsanguination or intravenous administration of a large amount of saturated potassium chloride solution under isoflurane anesthesia. Data were analyzed for the presence or absence of the termination, the time required for the termination, and the plasma concentration of compound (I) at the time of termination. The plasma was collected by centrifuging the blood and cryopreserved at about −20° C. After thawing of the plasma, plasma drug concentrations were measured using LC/MS/MS after deproteinization with acetonitrile.
In Table 1, the measurements are shown as mean±standard error.

Data set [2] deals with Hartley guinea pigs. The data set can be described thus: Preventive effect on siponimod-induced bradyarrhythmia in isoflurane-anesthetized guinea pig model. The class given is in vivo. How it is done: A solvent or compound (I) (free form) was administered by oral gavage at a dose of 0.3. 1, or 3 mg/kg (volume: 5 mL/kg) to Hartley guinea pigs (7 to 10 weeks old, male, available from Japan SLC, Inc.). After completion of the administration, each animal was subjected to anesthetic induction by inhalation of isoflurane (available from Pfizer Japan Inc.), and the animal was held on an operating table having a heater function. The trachea was incised, and a tracheal cannula (KN-375, available from Natsume Seisakusho Co., Ltd.) was inserted. The tracheal cannula was connected to a ventilator (SN-480-7, available from Shinano Seisakusho Co., Ltd.), and artificial respiration was controlled by supplying 100% oxygen at a volume of 10 mL and a ventilation rate of 60 times/minute. The solvent used was 0.5 w/v % methyl cellulose 400 solution (available from FUJIFILM Wako Pure Chemical Corporation). Isoflurane (available from Pfizer Japan Inc.) anesthesia (about 1 to 4%, carrier gas: 100% oxygen) was used for maintenance of anesthesia. A catheter (BD intramedic polyethylene tubing PE50, available from Becton, Dickinson and Company) charged with 50 units/mL heparin (available from AY PHARMACEUTICALS CO., LTD.) was inserted into each of the carotid artery and the jugular vein and placed in the blood vessel. Systemic blood pressure was measured with a high-sensitivity DC amplifier (AD-611J, available from NIHON KOHDEN CORPORATION) via the catheter placed in the carotid artery. Electrodes were attached to the body surface, and a body surface electrocardiogram was measured with a high-sensitivity amplifier (AB-611J, available from NIHON KOHDEN CORPORATION). Blood pressure and electrocardiogram data were acquired and analyzed with PowerLab/Labchart system (available from ADInstruments). Analysis items are systolic blood pressure, diastolic blood pressure, average blood pressure, heart rate, P-wave width, PR interval, QRS width, QT interval, and corrected QT interval. Corrected QT interval was calculated using the Fridericia formula (QTc=QT interval/RR interval^1/3). After stabilization of each parameter, siponimod (synthesized according to WO 2017/120124) was continuously administered intravenously at 0.01 mg/kg for 10 minutes via the catheter placed in the jugular vein, followed by observation of the presence or absence of the onset of bradyarrhythmia for 60 minutes. The solvent used was a solution prepared by mixing of Polyethylene Glycol 400 (available from KANTO CHEMICAL CO., INC.) and dimethyl sulfoxide (available from FUJIFILM Wako Pure Chemical Corporation) at 9: 1 (volume ratio). Data were recorded and blood was collected 5, 10, 15, 20, 30, and 60 minutes after initiation of administration of siponimod. The observation was terminated 60 minutes after initiation of the administration, and the animal was euthanized by exsanguination or intravenous administration of a large amount of saturated potassium chloride solution under isoflurane anesthesia. Data were analyzed for atrial beating rate over time, ventricular beating rate over time, electrocardiographic parameters, the presence or absence of the onset of atrioventricular block, and plasma concentrations of compound (I) and siponimod. The plasma was collected by centrifuging the blood and cryopreserved at about −20° C. After thawing of the plasma, plasma drug concentrations were measured using LC/MS/MS after deproteinization with acetonitrile.
In FIG. 3, the measurements are shown as mean±standard error. Abbreviations, etc. are as follows. • (I): compound (I) • Atrioventricular block: the presence or absence of atrioventricular block • (x denotes second- or third-degree atrioventricular block) • PR & QRS: atrioventricular conduction time and ventricular activation time • QT & QTcF: ventricular repolarization time and heart rate-corrected ventricular repolarization time • Plasma concentration: the plasma concentration of siponimod or compound (I)

As for `Cc1cc(CO)nc2cc3c(cc12)OC(C)(C)[C@H](O)[C@H]3NCCc1ccccc1` [Compound (I), (3R,4S)-7-Hydroxymethyl-2,2,9-trimethyl-4-(phenethylamino)-3,4-dihydro-2H-pyrano[2,3-g]quinoline-3-ol], the “fingolimod-induced bradyarrhythmia (atrioventricular block: A-V block) termination” value with Hartley guinea pigs [1] (compound (I) dihydrochloride 0.1 mg/kg continuous i.v.) was “completely terminated”. The “Number of cases where atrioventricular block was terminated” value in the data set on Hartley guinea pigs [1] (fingolimod-induced block, compound (I) dihydrochloride 0.1 mg/kg continuous i.v. for 30 minutes) was 5/5. In the data set on Hartley guinea pigs [1] (fingolimod-induced block, compound (I) dihydrochloride 0.1 mg/kg continuous i.v. for 30 minutes, mean±standard error), the “Time required for the termination of atrioventricular block” value stood at 750 ± 43 s. For the same compound, in the data set with Hartley guinea pigs [1] (plasma, fingolimod-induced block, 0.1 mg/kg continuous i.v. for 30 minutes, mean±standard error), the “Compound (I) concentration at the time of termination” value amounted to 30.9 ± 1.9 ng/mL. Also, the “cases in which siponimod-induced atrioventricular block was not observed” value in the data set on Hartley guinea pigs [2] (0.3 mg/kg oral gavage, four cases per group) turned out to be 50%; in the data set with Hartley guinea pigs [2] (1 mg/kg oral gavage, four cases per group) it was 75%. In the data set with Hartley guinea pigs [2] (3 mg/kg oral gavage, four cases per group), the “cases in which siponimod-induced atrioventricular block was suppressed” value was found to be 100%. In addition, the “siponimod-induced bradycardia (ventricular beating rate / heart rate)” value in the data set on Hartley guinea pigs [2] (3 mg/kg oral gavage, siponimod 0.01 mg/kg i.v.) is reported as “completely restored; also recorded: completely prevented”; in the data set with Hartley guinea pigs [2] (compound (I) 0.3, 1, 3 mg/kg oral gavage before siponimod 0.01 mg/kg i.v. over 10 min, FIG. 3), “improved in a dose-dependent manner; also recorded: prevented a reduction in heart rate”. For the same compound, the “onset of siponimod-induced bradyarrhythmia (atrioventricular block)” value in the data set on Hartley guinea pigs [2] (0.3, 1, 3 mg/kg oral gavage, FIG. 3 and FIG. 4) was “prevented the onset of siponimod-induced bradyarrhythmia (atrioventricular block) in a dose-dependent manner”. For the same compound, the “siponimod-induced prolongation of QT time” value in the data set with Hartley guinea pigs [2] (compound (I) oral gavage 0.3-3 mg/kg) is “almost completely suppressed”.
